Values after ≈ are worked out from the molar mass of the structure shown. Read-outs that look alike come from different tables or passages of the source.
Legend:
Type in all cases: cell-based
[1] = system: Carbapenem-resistant Acinetobacter baumannii (CRAB); experiment: Test Example 1: antibacterial activity test (MIC)
Experimental: (§1) The test compounds were diluted in a gradient and used for an MIC assay on the test strains. The test compounds at an initial assay concentration of 32 μg/mL were diluted in a 2-fold gradient (11 concentration points in total), and two duplicate wells were set for each concentration. Additional wells without drug dosing were set as growth controls. The minimum inhibitory concentration (MIC) assay was performed with reference to the Clinical and Laboratory Standards Institute (CLSI) guidelines.
(§2) After the frozen strains were subcultured, a single colony was picked and re-suspended in normal saline or sterile water in a tube. The bacterial suspension was vortexed and adjusted to 0.5 McF using a spectrophotometer at the wavelength of 530 nm. The bacterial solution was taken by a pipette, added to a culture medium, diluted and mixed well, and seeded to a bacterial assay plate.
(§3) The 96-well plate was affixed with a disposable sealing film, shaken and mixed well, and visually observed using a plate reader. The minimum concentration of the compounds capable of inhibiting the growth of bacteria was defined as MIC as compared to the growth controls.

[2] = system: Carbapenem-resistant Enterobacteriaceae (CRE); experiment: Test Example 1: antibacterial activity test (MIC)
Experimental: as §1, §2, §3

[3] = system: Carbapenem-resistant Pseudomonas aeruginosa (CRPA); experiment: Test Example 1: antibacterial activity test (MIC)
Experimental: as §1, §2, §3

[4] = system: Carbapenem-resistant Acinetobacter baumannii (CRAB, Acinetobacter baumannii); experiment: Test Example 2: antibacterial activity test (MIC); details: ID-CAMHB, read-out: ID-CAMHB, MIC
Experimental: (§4) 1. The test compounds were dissolved in sterile normal saline, vortexed for uniformly mixing, and diluted in a 2-fold dilution with the sterile normal saline (11 concentration points in total). The test concentration range was 32-0.031 μg/mL, and two duplicate wells were set for each concentration. Additional wells without drug dosing were set as growth controls. 2. 4 μL of the diluent was added to 196 μL of the bacterial suspension in a 96-well plate (the bacterial count in the bacterial suspension was 2-8×10^5 colony forming units/mL). 3.
(§5) The minimum inhibitory concentration (MIC) assay was performed with reference to the Clinical and Laboratory Standards Institute (CLSI) guidelines.

[5] = system: Carbapenem-resistant Enterobacteriaceae (CRE, Klebsiella pneumoniae); experiment: Test Example 2: antibacterial activity test (MIC); details: ID-CAMHB, read-out: ID-CAMHB, MIC
Experimental: as §4, §5

[6] = system: Carbapenem-resistant Pseudomonas aeruginosa (CRPA, Pseudomonas aeruginosa); experiment: Test Example 2: antibacterial activity test (MIC); details: ID-CAMHB, read-out: ID-CAMHB, MIC
Experimental: as §4, §5

[7] = system: Control Strain Pseudomonas aeruginosa ATCC 27853; experiment: Test Example 2: antibacterial activity test (MIC); details: ATCC27853, ID-CAMHB, ATCC 27853, read-out: ID-CAMHB, MIC
Experimental: as §4, §5

[8] = system: Control strain Escherichia coli ATCC 25922; experiment: Test Example 2: antibacterial activity test (MIC); details: ATCC25922, ID-CAMHB, ATCC 25922, read-out: ID-CAMHB, MIC
Experimental: as §4, §5

[9] = FDA-CDC AR-BANK #0036 (strB, OXA-65, OXA-24, strA, sul2)
[10] = FDA-CDC AR-BANK #0052 (OXA-58, OXA-100, sul2)
[11] = FDA-CDC AR-BANK #0063 (OXA-23, OXA-65, OXA-24, sul2)
[12] = FDA-CDC AR-BANK #0070 (OXA-58, OXA-100, sul2)
[13] = FDA-CDC AR-BANK #0101 (strB, OXA-65, OXA-24, strA, sul2)
[14] = FDA-CDC AR-BANK #0361 (TEM-1; SHV-12; KPC-2)
[15] = FDA-CDC AR-BANK #0362 (TEM-1; SHV-11; KPC-2)
[16] = FDA-CDC AR-BANK #0363 (TEM-1; SHV-12; KPC-2)
[17] = FDA-CDC AR-BANK #0438 (aph(3′)-Ia, dfrA12, KPC-3, OmpK35, oqxA, oqxB, SHV-11)
[18] = FDA-CDC AR-BANK #0453 (KPC-3, OmpK35, oqxA, oqxB, SHV-11, TEM-1B)
[19] = FDA-CDC AR-BANK #0439 (aac(6′)-Il, aadA1b, BCR1, IMP-18, OXA-50)
[20] = FDA-CDC AR-BANK #0444 (aac(6′)-Il, dfrB5, OXA-4, tet(G), VIM-2)
[21] = FDA-CDC AR-BANK #0457 (aadA6, VIM-2)

Q: What does the source list for `CC(C)(O/N=C(\C(=O)N[C@@H]1C(=O)N2C(C(=O)[O-])=C(C[N+]3(CC4(NC(=O)c5ccc(O)c(O)c5Cl)CC4)CCCC3)CS[C@H]12)c1csc(N)n1)C(=O)O` [Compound 2]?
A: MIC ([1]; CRAB strain No. 100085): 0.5 µg/mL (≈ 0.642 µM); MIC ([1]; CRAB strain No. 100333): 2 µg/mL (≈ 2.57 µM); MIC ([1]; CRAB strain No. 110440): 3 µg/mL (≈ 3.85 µM); MIC ([1]; CRAB strain No. 110477): 2 µg/mL (≈ 2.57 µM); MIC ([1]; CRAB strain No. 110517): 0.5 µg/mL (≈ 0.642 µM); MIC ([2]; CRE strain No. 100109): 1 µg/mL (≈ 1.28 µM); MIC ([2]; CRE strain No. 100186): 1.5 µg/mL (≈ 1.93 µM); MIC ([2]; CRE strain No. 110502): 6 µg/mL (≈ 7.71 µM); MIC ([2]; CRE strain No. 110525): 2 µg/mL (≈ 2.57 µM); MIC ([2]; CRE strain No. 311277): 1.5 µg/mL (≈ 1.93 µM); MIC ([3]; CRPA strain No. 100110): 0.031 µg/mL (≈ 0.0398 µM); MIC ([3]; CRPA strain No. 110163): 0.5 µg/mL (≈ 0.642 µM); MIC ([3]; CRPA strain No. 110224): 0.75 µg/mL (≈ 0.964 µM); MIC ([3]; CRPA strain No. 110358): 1 µg/mL (≈ 1.28 µM); MIC ([3]; CRPA strain No. 110390): 0.5 µg/mL (≈ 0.642 µM); MIC [4, 9]: 0.5 µg/mL (≈ 0.642 µM); MIC [4, 10]: 0.0625 µg/mL (≈ 0.0803 µM); MIC [4, 11]: 16 µg/mL (≈ 20.6 µM); MIC [4, 12]: 0.0625 µg/mL (≈ 0.0803 µM); MIC [4, 13]: 0.5 µg/mL (≈ 0.642 µM); MIC [5, 14]: 1 µg/mL (≈ 1.28 µM); MIC [5, 15]: 0.5 µg/mL (≈ 0.642 µM); MIC [5, 16]: 0.5 µg/mL (≈ 0.642 µM); MIC [5, 17]: 1 µg/mL (≈ 1.28 µM); MIC [5, 18]: 2 µg/mL (≈ 2.57 µM); MIC [6, 19]: 0.5 µg/mL (≈ 0.642 µM); MIC ([6]; FDA-CDC AR-BANK #0441 (KPC-2)): 2 µg/mL (≈ 2.57 µM); MIC [6, 20]: 4 µg/mL (≈ 5.14 µM); MIC [6, 21]: 0.125 µg/mL (≈ 0.161 µM); MIC [7]: 0.0625 µg/mL (≈ 0.0803 µM); MIC [8]: 0.125 µg/mL (≈ 0.161 µM)

Q: Which MIC [4, 9] does the source give for `CC(=O)N(O)CC[N+]1(CC2=C(C(=O)O)N3C(=O)[C@@H](NC(=O)/C(=N\OC(C)(C)C(=O)O)c4csc(N)n4)[C@H]3SC2)CCCC1` [Compound 5] here?
A: > 32 µg/mL

Q: And the MIC [4, 10]?
A: > 32 µg/mL

Q: What about the MIC [4, 11] of the same molecule?
A: > 32 µg/mL

Q: And the MIC [4, 12]?
A: > 32 µg/mL

Q: And the MIC [4, 13]?
A: > 32 µg/mL

Q: What about the MIC [5, 14] of the same molecule?
A: > 32 µg/mL

Q: What about the MIC [5, 15] of the same molecule?
A: > 32 µg/mL

Q: And the MIC [5, 16]?
A: > 32 µg/mL

Q: What about the MIC [5, 17] of the same molecule?
A: > 32 µg/mL

Q: And the MIC [5, 18]?
A: > 32 µg/mL

Q: What about the MIC [6, 19] of the same molecule?
A: > 32 µg/mL

Q: And the MIC ([6]; FDA-CDC AR-BANK #0441 (KPC-2))?
A: > 32 µg/mL

Q: And the MIC [6, 20]?
A: > 32 µg/mL

Q: And the MIC [6, 21]?
A: > 32 µg/mL

Q: And the MIC [7]?
A: > 32 µg/mL

Q: What about the MIC [8] of the same molecule?
A: > 32 µg/mL
